{"source": "patent US20040014217A1", "about": "“Methods of transfection” (priority 2000, published 2004)", "key": {"[1]": {"system": "Human airway epithelial (HAE) cells", "experiment": "GFP transfection of HAE cells with or without EGTA (FACS), Example 13", "type": "cell-based", "conditions": "EGTA 1 mM", "protocol": "Human airway epithelial (HAE) cells, type HEAO— were seeded at 80% into 24 well plates. The cells were grown in Modified Eagle Medium (MEM) obtained from Life Technologies (Paisley, Scotland) supplemented with 10% foetal calf serum and 2 mM L-glutamine to form cultures of confluent cells. Subconfluent cultures of the same cells were also prepared.\nThe reporter genes used were a green fluorescent protein (GFP) reporter gene and a luciferase reporter gene. The GFP reporter gene was used in the form of plasmid pEGFP-N1, obtained from Clontech. The luciferase reporter gene was used in the form of construct pCILuc consisting of the firefly luciferase gene (Luc) inserted into the expresssion vector pCI (Promega, Southampton, England)\nFor these in vitro experiments peptide 12 [K]16XSXGACRRETAWACG (X: ε amino hexanoic acid), SEQ.ID.NO.: 26, was used. […]\nTransfection levels using the luciferase reporter gene was measured as described in the Material and methods section. In the case of the GFP reporter gene, after harvesting the cells were analysed by fluorescence activated cell sorting (FACS) for quantification of the number of fluorescent cells."}, "1HAEo-cells [2]": {"system": "1HAEo-cells", "experiment": "pEGFP transfection efficiency by flow cytometry, 1HAEo- cells, Example 15", "type": "cell-based, human", "conditions": "EGTA 2 mM versus no EGTA", "experimental": "Human airway epithelial cell lines, a normal cell line 1HAEo- and a CF cell line 2CFSMEo-, were used in this study. […] The apical medium was then removed and growth medium was added basolateraly to leave the cells growing at an air-liquid interface. Confluent cells were grown for further 10-14 days and were monitored with an ohmmeter (EVOM; World Precision Instruments, Stevenage, UK) until the transepithelial resistance was greater than 300 Ω·cm before transfection. […] Sub-confluent, proliferating cells were prepared by growing the cells for less then 3 days in growth medium prior to transfection.\nBriefly, stock solutions of the three components of the LID vector complex were prepared first. Plasmid DNA (component D) was diluted in cell culture medium OptiMEM (Life Technologies, Paisley, UK) at a concentration of 0.01 μg/μl. […] The peptide component I was dissolved in Opti-MEM at 0.1 mg/ml. The lipid component L was Lipofectin, a commercially available equimolar mixture of the cationic lipid N-[1-(2,3-dioleyloxy)propyl]-n,n,n-trimethylammonium chloride (DOTMA) and the neutral lipid dioleoyl phosphotidylethanolamine (DOPE), (Life Technologies, Paisley, UK) and was used from purchase at 1 mg/ml. […]"}, "1HAEo-cells [3]": {"system": "1HAEo-cells", "experiment": "Luminometric luciferase assay, EGTA effects, 1HAEo- cells", "type": "cell-based, human", "conditions": "2 mM EGTA prior to transfection, 2 washes", "protocol": "The confluent (A) and subconfluent (B) 1HAEo-cells were transfected with LID complexes after pre-treatment with EGTA (EGTA) or in the presence of EGTA (LID+EGTA).\nTo enhance the efficiency of transfection in confluent epithelial cells, several agents were tested including EGTA (Sigma, Poole, UK), trypsin/EDTA (Sigma, Poole, UK), water, and mouse anti human E-cadherin antibody (Serotec Ltd, Oxford, UK). It was carried out firstly by comparing the effects of pretreatment of the cells with EGTA, water and Trypsin/EDTA with EGTA formulated into LID vector without pretreatment. […]\nTwenty-four hours after transfection with pCI-luciferase, is cells were washed with PBS, lysed by adding 100 μl of Reporter Lysis Buffer (Promega, Southampton, UK) and detached from the plate by manual scraping using micropipette tips. […] The activity of luciferase was assayed with a luciferase assay kit (Promega, Southampton, UK) on a Lucy-1 plate-reading luminometer (Anthos, Salzburg, Austria). The protein concentration of each sample was determined with Protein Assay Reagent (BioRad Laboratories, Hertfordshire, UK) by measuring absorbance at 595 nm and the specific activity of luciferase was expressed as relative light unit per milligram protein (RLU/mg protein)."}, "confluent 1HAEo-cells": {"system": "confluent 1HAEo-cells", "experiment": "Immunofluorescence for tight junction protein occludin", "type": "cell-based, human", "conditions": "2 mM EGTA in Opti-MEM, 30 minutes", "protocol": "To observe the double fluorescence labelling, the β-galactosidase-transfected and BrdU-labelled (as detailed above in Assay of cell proliferation) cells were fixed with 70% ethanol in 50 mM glycine buffer, pH 2.0, for 30 minutes at −20° C. The cells were then incubated with a mixture of two primary antibodies, the rabbit anti-p-galactosidase at 1:200 (Chemicon International Inc, Harrow, UK). and the mouse anti-BrdU at 1:10 (BrdU Labelling and Detection Kit; Roche, Basel, Switzerland), followed by incubation with a mixture of FITC-conjugated goat anti-rabbit IgG and texas red labelled horse anti-mouse IgG (Vector Laboratories, Peterborough, UK). Transwell inserts were then excised from the plastic holder and mounted on glass slides with aqueous mountant Vectashield (Vector Laboratories, Peterborough, UK). To observe the effects of EGTA on tight junction, the EGTA-treated cells were immunostained with a rabbit polyclonal antibody against tight junction protein occludin (Zymed, San Francisco, USA) diluted 1:10 with PBS. […] Images were observed and captured with an inverted fluorescence microscope (Olympus IX70, Olympus Optical Company, London, UK) for transwell and a confocal microscope (Leica TCS SP, Exton, Pa., USA) for excised inserts."}}}
{"smiles": "O=C(O)CN(CCOCCOCCN(CC(=O)O)CC(=O)O)CC(=O)O", "note": "[EGTA, ethylene glycol-bis(β-aminoethyl ether)-N,N,N′,N′-tetraacetic acid]", "values": [{"measurement": "effect on efficiency of transfection of sub-confluent cells", "setting": "[1]", "value": "no effect"}, {"measurement": "increase of transfection levels of confluent cells", "setting": "[1]", "value": "four-fold"}, {"measurement": "increase in transfection efficiency of confluent cells", "setting": "1HAEo-cells [2]", "value": 4, "unit": "fold"}, {"measurement": "enhancement of transfection, EGTA pre-treatment protocol, confluent cells", "setting": "1HAEo-cells [3]", "value": "no enhancement"}, {"measurement": "effect on tight junctions (occludin immunofluorescence)", "setting": "confluent 1HAEo-cells", "value": "disrupted the tight junctions"}]}
